Reference: patent US10364244B2, “Crystal form of pyrroloquinoline quinone sodium salt and preparation method and use thereof” (Zhejiang Hisun Pharmaceutical Co., Ltd., priority 2015, dated 2019)

Key:
[1] = Hygroscopicity test (25° C., humidity 75%, 24 h); format: physicochemical; details: for Rate of moisture absorption: 1 g sample, temperature of 25° C., humidity of 75%; for hygroscopicity (conclusion in words from the hygroscopicity test): 25° C., humidity 75%
Procedure: Hygroscopicity test. Test Conditions: watch glasses were placed in the environment at the temperature of 25° C. and the humidity of 75% for 24 h, then for each of the following samples, 1 g was weighed, and the weighted samples were quickly placed in the environment at the temperature of 25° C. and the humidity of 75% for 24 h to absorb moisture sufficiently.

[2] = at 65%-85% RH; cited from earlier work

| Rate of moisture absorption ([1]; disodium salt) [%] | hygroscopicity (conclusion in words from the hygroscopicity test) ([1]; disodium salt) | Structure (SMILES) | also measured |
| --- | --- | --- | --- |
| 0 | not hygroscopic | O=C(O)c1cc(C(=O)O)c2c(n1)C(=O)C(=O)c1cc(C(=O)O)[nH]c1-2.[Na].[Na] [Crystal form I, pyrroloquinoline quinone disodium salt] |  |
| 0.30 |  | O=C(O)c1cc(C(=O)O)c2c(n1)C(=O)C(=O)c1cc(C(=O)O)[nH]c1-2.[Na].[Na] [Crystal form II, pyrroloquinoline quinone disodium salt] |  |
| 0 | not hygroscopic | O=C(O)c1cc(C(=O)O)c2c(n1)C(=O)C(=O)c1cc(C(=O)O)[nH]c1-2.[Na].[Na] [Crystal form III, pyrroloquinoline quinone disodium salt] |  |
|  |  | O=C(O)c1cc(C(=O)O)c2c(n1)C(=O)C(=O)c1cc(C(=O)O)[nH]c1-2.[Na] [Crystal form IV, pyrroloquinoline quinone monosodium salt] | Rate of moisture absorption [1]: 0%; hygroscopicity (conclusion in words from the hygroscopicity test) [1]: not hygroscopic |
| 0.85 |  | O=C(O)c1cc(C(=O)O)c2c(n1)C(=O)C(=O)c1cc(C(=O)O)[nH]c1-2.[Na].[Na] [Crystal form of the disodium salt in CN201080031945] [pyrroloquinoline quinone disodium salt, reference compound] | hygroscopicity (conclusion in words from the hygroscopicity test) ([1]; listed as crystal form in CN201080031945, disodium salt): strongest hygroscopicity |
|  |  | O=C(O)c1cc(C(=O)O)c2c(n1)C(=O)C(=O)c1cc(C(=O)O)[nH]c1-2.[Na] [crystal form A in CN201210452297.6, pyrroloquinoline quinone sodium salt] | hygroscopicity [2]: less than 3% |
